Data from ChEMBL document CHEMBL2331112, “Synthesis of novel 2-alkyl triazole-3-alkyl substituted quinoline derivatives and their cytotoxic activity” (Bioorg Med Chem Lett, 2013).
In brackets after ≈: the same amount, converted by molar mass.

Assays:
Format in all cases: functional, cell-based
HeLa = test: Cytotoxicity against human HeLa cells after 24 hrs by MTT assay
THP-1 = test: Cytotoxicity against human THP1 cells after 24 hrs by MTT assay; conditions: THP-1, 24 h
U-937 = test: Cytotoxicity against human U937 cells after 24 hrs by MTT assay; conditions: U-937, 24 h
COLO 205 = test: Cytotoxicity against human COLO205 cells after 24 hrs by MTT assay; conditions: COLO 205, 24 h

| Compound | IC50 (HeLa) [µg/mL] | IC50 (THP-1) [µg/mL] | IC50 (U-937) [µg/mL] | IC50 (COLO 205) [µg/mL] |
| --- | --- | --- | --- | --- |
| CCCc1cc2ccccc2nc1-c1cn(CCC(F)(F)C(F)(F)C(F)(F)C(F)(F)C(F)(F)C(F)(F)C(F)(F)C(F)(F)F)nn1 | 37.8 (≈ 55.2 µM) | > 100 | > 100 | > 100 |
| O=c1[nH]cc(F)c(=O)[nH]1 [FLUOROURACIL] | 1.28 (≈ 9.84 µM) | 0.54 (≈ 4.15 µM) | 0.87 (≈ 6.69 µM) | 4.03 (≈ 31 µM) |
| CCCCc1cc2ccccc2nc1-c1cn(-c2ccc(F)cc2)nn1 | > 100 | 78.3 (≈ 226 µM) | 66.2 (≈ 191 µM) | > 100 |
| CCCCCc1cc2ccccc2nc1-c1cn(-c2ccc(F)cc2)nn1 | > 100 | > 100 | 67.5 (≈ 187 µM) | > 100 |
| CCCCCCCCCCn1cc(-c2nc3ccccc3cc2C)nn1 | 28.2 (≈ 80.4 µM) | > 100 | > 100 | 44.5 (≈ 127 µM) |
| Cc1cc2ccccc2nc1-c1cn(-c2ccc(F)cc2)nn1 | > 100 | > 100 | 65.6 (≈ 215 µM) | > 100 |
| CCc1cc2ccccc2nc1-c1cn(CCC(F)(F)C(F)(F)C(F)(F)C(F)(F)C(F)(F)C(F)(F)C(F)(F)C(F)(F)F)nn1 | > 100 | > 100 | 55.9 (≈ 83.4 µM) | 95.2 (≈ 142 µM) |
| CCCCCCCCCCn1cc(-c2nc3ccccc3cc2CCCC)nn1 | > 100 | > 100 | 25.2 (≈ 64.3 µM) | > 100 |
| CCCCCCCCCCn1cc(-c2nc3ccccc3cc2CCC)nn1 | > 100 | > 100 | 26.6 (≈ 70.2 µM) | > 100 |
| CCCCCCCCCCn1cc(-c2nc3ccccc3cc2CC)nn1 | > 100 | 34.3 (≈ 94 µM) | 12.7 (≈ 34.9 µM) | > 100 |
| CCCc1cc2ccccc2nc1-c1cn(-c2ccc(F)cc2)nn1 | > 100 | > 100 | 67.4 (≈ 203 µM) | > 100 |
| Cc1cc2ccccc2nc1-c1cn(CCC(F)(F)C(F)(F)C(F)(F)C(F)(F)C(F)(F)C(F)(F)C(F)(F)C(F)(F)F)nn1 | > 100 | > 100 | 56.6 (≈ 86.2 µM) | 75.8 (≈ 116 µM) |
| CCCCCc1cc2ccccc2nc1-c1cn(CCC(F)(F)C(F)(F)C(F)(F)C(F)(F)C(F)(F)C(F)(F)C(F)(F)C(F)(F)F)nn1 | > 100 | > 100 | > 100 | > 100 |
| CCc1cc2ccccc2nc1-c1cn(-c2ccc(F)cc2)nn1 | > 100 | > 100 | > 100 | > 100 |
| CCCCCCCCCCn1cc(-c2nc3ccccc3cc2CCCCC)nn1 | > 100 | 88 (≈ 216 µM) | 18.2 (≈ 44.7 µM) | > 100 |
| CCCCc1cc2ccccc2nc1-c1cn(CCC(F)(F)C(F)(F)C(F)(F)C(F)(F)C(F)(F)C(F)(F)C(F)(F)C(F)(F)F)nn1 | 32.8 (≈ 47 µM) | > 100 | 59.1 (≈ 84.6 µM) | > 100 |
